target: T1, Human plasma kallikrein (Homo sapiens, UniProt P03952); experiment: Kallikrein Assay (fluorogenic substrate hydrolysis, AFC release); format: biochemical; settings: purified Human plasma kallikrein 0.5 nM; substrate Acetyl-K—P—R-AFC 100 mM; 50 mM HEPES pH 7.4
T1 construct: yields a heavy chain (371 amino acids) and a light chain (248 amino acids); purchased Enzyme Research Laboratories
Method in brief: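 Enzyme–inhibitor equilibrated before substrate dilution to ≤0.2 Km; human plasma kallikrein at 0.5 nM final, Acetyl-K-P-R-AFC substrate, HEPES pH 7.4 buffer with NaCl, CaCl2, PEG 8000, at room temperature or 37° C. Linear-phase fluorescence rate gives percent inhibition, four-parameter logistic IC50, then Cheng-Prusoff Ki.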

T1 sequence (P03952 391-638 limits assumed): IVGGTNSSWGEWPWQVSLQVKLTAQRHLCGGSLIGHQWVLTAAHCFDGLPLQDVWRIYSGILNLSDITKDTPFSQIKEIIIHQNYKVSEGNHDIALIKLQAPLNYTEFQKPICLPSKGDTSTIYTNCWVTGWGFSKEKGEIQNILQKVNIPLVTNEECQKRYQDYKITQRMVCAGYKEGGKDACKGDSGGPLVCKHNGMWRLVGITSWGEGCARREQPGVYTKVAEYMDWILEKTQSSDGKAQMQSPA
T1 sequence (P03952 20-390 partner limits assumed): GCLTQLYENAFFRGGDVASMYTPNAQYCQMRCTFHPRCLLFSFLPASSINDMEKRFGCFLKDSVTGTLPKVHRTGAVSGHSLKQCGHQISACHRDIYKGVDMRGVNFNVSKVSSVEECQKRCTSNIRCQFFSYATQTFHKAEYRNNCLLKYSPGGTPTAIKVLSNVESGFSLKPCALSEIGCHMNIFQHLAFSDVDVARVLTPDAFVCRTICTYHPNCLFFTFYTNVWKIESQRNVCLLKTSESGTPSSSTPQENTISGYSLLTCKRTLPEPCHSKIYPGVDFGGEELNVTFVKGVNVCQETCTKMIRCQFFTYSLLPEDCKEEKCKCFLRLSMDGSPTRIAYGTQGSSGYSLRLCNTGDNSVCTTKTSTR

Row | IC50 [nM] | Structure (SMILES)
1 | 1.1 | Cc1cc(N2C[C@H]3C[C@H]3C2=O)ncc1Cn1cc(C(=O)N[C@H]2C[C@@H](c3cc(Cl)ccc3C#N)C2)c(C(F)F)n1 [Example 38, N-((cis)-3-(5-chloro-2-cyanophenyl)cyclobutyl)-3-(difluoromethyl)-1-((4-methyl-6-((1R,5S)-2-oxo-3-azabicyclo[3.1.0]hexan-3-yl)pyridin-3-yl)methyl)-1H-pyrazole-4-carboxamide]
2 | 6.7 | COc1c(N2C[C@H]3C[C@H]3C2=O)ncc(C(C)n2cc(C(=O)N[C@H]3C[C@@H](c4cc(Cl)ccc4C#N)C3)nn2)c1C (single isomer, unassigned) [Example 112, N-((cis)-3-(5-chloro-2-cyanophenyl)cyclobutyl)-1-((S or R)-1-(5-methoxy-4-methyl-6-((1R,5S)-2-oxo-3-azabicyclo[3.1.0]hexan-3-yl)pyridin-3-yl)ethyl)-1H-1,2,3-triazole-4-carboxamide]
3 | 0.5 | Cc1c(C(C)n2cc(C(=O)N[C@H]3C[C@@H](c4cc(Cl)ccc4C#N)C3)nn2)cnc(N2C[C@H]3C[C@H]3C2=O)c1C (single isomer, unassigned) [Example 87, N-((cis)-3-(5-chloro-2-cyanophenyl)cyclobutyl)-1-((S or R)-1-(4,5-dimethyl-6-((1R,5S)-2-oxo-3-azabicyclo[3.1.0]hexan-3-yl)pyridin-3-yl)ethyl)-1H-1,2,3-triazole-4-carboxamide]
4 | 10000 | Cc1cc(N2C[C@H]3C[C@H]3C2=O)ncc1C(C)n1cc(C(=O)N[C@H]2C[C@@H](c3cc(Cl)ccc3C(F)F)C2)nn1 (single isomer, unassigned) [Example 72, N-((cis)-3-(5-chloro-2-(difluoromethyl)phenyl)cyclobutyl)-1-((S or R)-1-(4-methyl-6-((1R,5S)-2-oxo-3-azabicyclo[3.1.0]hexan-3-yl)pyridin-3-yl)ethyl)-1H-1,2,3-triazole-4-carboxamide]
5 | 1.1 | Cc1c(C(C)n2cc(C(=O)N[C@H]3C[C@@H](c4cc(Cl)ccc4C#N)C3)nn2)cnc(N2C[C@H]3C[C@H]3C2=O)c1C (single isomer, unassigned) [Example 86, N-((cis)-3-(5-chloro-2-cyanophenyl)cyclobutyl)-1-((R or S)-1-(4,5-dimethyl-6-((1R,5S)-2-oxo-3-azabicyclo[3.1.0]hexan-3-yl)pyridin-3-yl)ethyl)-1H-1,2,3-triazole-4-carboxamide]
6 | 26.9 | Cc1cc(N2C[C@H]3C[C@H]3C2=O)ncc1[C@@H](C)c1cc(C(=O)N[C@H]2C[C@@H](c3cc(Cl)ccc3C#N)C2)n(C)n1 [Example 174, N-((cis)-3-(5-chloro-2-cyanophenyl)cyclobutyl)-1-methyl-3-((R)-1-(4-methyl-6-((1R,5S)-2-oxo-3-azabicyclo[3.1.0]hexan-3-yl)pyridin-3-yl)ethyl)-1H-pyrazole-5-carboxamide]
7 | 14.6 | Cc1cc(N2C[C@H]3C[C@H]3C2=O)ncc1C(C)n1cc(C(=O)N[C@H]2C[C@@H](c3cc(Cl)ccc3OC(F)F)C2)nn1 (single isomer, unassigned) [Example 70, N-((cis)-3-(5-chloro-2-(difluoromethoxy)phenyl)cyclobutyl)-1-((S or R)-1-(4-methyl-6-((1R,5S)-2-oxo-3-azabicyclo[3.1.0]hexan-3-yl)pyridin-3-yl)ethyl)-1H-1,2,3-triazole-4-carboxamide]
8 | 1.4 | Cc1ccc(C#N)c([C@H]2C[C@@H](NC(=O)c3cn(C(C)c4cnc(N5C[C@H]6C[C@H]6C5=O)c(F)c4C)nn3)C2)n1 (single isomer, unassigned) [Example 136, N-((cis)-3-(3-cyano-6-methylpyridin-2-yl)cyclobutyl)-1-((S or R)-1-(5-fluoro-4-methyl-6-((1R,5S)-2-oxo-3-azabicyclo[3.1.0]hexan-3-yl)pyridin-3-yl)ethyl)-1H-1,2,3-triazole-4-carboxamide]
9 | 18.6 | CC(c1ncc(N2C[C@H]3C[C@H]3C2=O)cc1F)n1cc(C(=O)N[C@H]2C[C@@H](c3cc(Cl)ccc3C#N)C2)cn1 (single isomer, unassigned) [Example 27, N-((cis)-3-(5-chloro-2-cyanophenyl)cyclobutyl)-1-((S or R)-1-(3-fluoro-5-((1R,5S)-2-oxo-3-azabicyclo[3.1.0]hexan-3-yl)pyridin-2-yl)ethyl)-1H-pyrazole-4-carboxamide]
10 | 5.8 | Cc1c([C@H](C)n2cc(C(=O)NC34CCCC(c5cc(Cl)ccc5C#N)(C3)C4)nn2)cnc(N2C[C@H]3C[C@H]3C2=O)c1C [Example 150, N-(5-(5-chloro-2-cyanophenyl)bicyclo[3.1.1]heptan-1-yl)-1-((S)-1-(4,5-dimethyl-6-((1R,5S)-2-oxo-3-azabicyclo[3.1.0]hexan-3-yl)pyridin-3-yl)ethyl)-1H-1,2,3-triazole-4-carboxamide]
11 | 6.7 | Cc1nn(C(C)c2cnc(N3C[C@H]4C[C@H]4C3=O)nc2)cc1C(=O)N[C@H]1C[C@@H](c2cc(Cl)ccc2C#N)C1 (single isomer, unassigned) [Example 16, N-((cis)-3-(5-chloro-2-cyanophenyl)cyclobutyl)-3-methyl-1-((S or R)-1-(2-((1R,5S)-2-oxo-3-azabicyclo[3.1.0]hexan-3-yl)pyrimidin-5-yl)ethyl)-1H-pyrazole-4-carboxamide]
12 | 1 | Cc1c(N2C[C@H]3C[C@H]3C2=O)ncc([C@@H](C)n2cc(C(=O)NC3CC(c4cc(Cl)ccc4C#N)C3)cn2)c1F (single isomer, unassigned) [Example 165]
13 | 10.1 | Cc1ccc(C#N)c([C@H]2C[C@@H](NC(=O)c3cnn(C(C)c4cnc(N5C[C@H]6C[C@H]6C5=O)c(C)n4)c3)C2)n1 (single isomer, unassigned) [Example 52, N-((cis)-3-(3-cyano-6-methylpyridin-2-yl)cyclobutyl)-1-((S or R)-1-(6-methyl-5-((1R,5S)-2-oxo-3-azabicyclo[3.1.0]hexan-3-yl)pyrazin-2-yl)ethyl)-1H-pyrazole-4-carboxamide]
14 | 3.7 | Cc1c([C@H](C)n2cc(C(=O)N[C@H]3C[C@@H](c4cc(Cl)ccc4C#N)C3)nn2)nc(N2C[C@H]3C[C@H]3C2=O)n1C (single isomer, unassigned) [Example 162]
15 | 6.7 | Cc1cc(N2C[C@H]3C[C@H]3C2=O)ncc1C1(n2cc(C(=O)N[C@H]3C[C@@H](c4cc(Cl)ccc4C#N)C3)nn2)CC1 [Example 160, N-((cis)-3-(5-chloro-2-cyanophenyl)cyclobutyl)-1-(1-(4-methyl-6-((1R,5S)-2-oxo-3-azabicyclo[3.1.0]hexan-3-yl)pyridin-3-yl)cyclopropyl)-1H-1,2,3-triazole-4-carboxamide]
16 | 178 | Cc1nc(N2C[C@H]3C[C@H]3C2=O)ccc1C(C)n1cc(C(=O)N[C@H]2C[C@@H](c3cc(Cl)ccc3C#N)C2)nn1 (single isomer, unassigned) [Example 94, N-((cis)-3-(5-chloro-2-cyanophenyl)cyclobutyl)-1-((R or S)-1-(2-methyl-6-((1R,5S)-2-oxo-3-azabicyclo[3.1.0]hexan-3-yl)pyridin-3-yl)ethyl)-1H-1,2,3-triazole-4-carboxamide]
17 | 4.7 | Cc1cc(N2C[C@H]3C[C@H]3C2=O)nnc1C(C)n1cc(C(=O)N[C@H]2C[C@@H](c3cc(Cl)ccc3C#N)C2)nn1 (single isomer, unassigned) [Example 118, N-((cis)-3-(5-chloro-2-cyanophenyl)cyclobutyl)-1-((S or R)-1-(4-methyl-6-((1R,5S)-2-oxo-3-azabicyclo[3.1.0]hexan-3-yl)pyridazin-3-yl)ethyl)-1H-1,2,3-triazole-4-carboxamide]
18 | 0.2 | Cc1nc(C(C)n2cc(C(=O)N[C@H]3C[C@@](C)(c4cc(Cl)ccc4C#N)C3)nn2)cnc1N1C[C@H]2C[C@H]2C1=O (single isomer, unassigned) [Example 109, N-((cis)-3-(5-chloro-2-cyanophenyl)-3-methylcyclobutyl)-1-((R or S)-1-(6-methyl-5-((1R,5S)-2-oxo-3-azabicyclo[3.1.0]hexan-3-yl)pyrazin-2-yl)ethyl)-1H-1,2,3-triazole-4-carboxamide]
19 | 1.1 | Cc1c([C@H](C)n2cc(C(=O)NC3CC(c4cccc(Cl)c4)C3O)nn2)cnc(N2C[C@H]3C[C@H]3C2=O)c1C (single isomer, unassigned) [Example 151, N-((1R,2R,3R or 1S,2S,3S))-3-(3-chlorophenyl)-2-hydroxycyclobutyl)-1-((S)-1-(4,5-dimethyl-6-((1R,5S)-2-oxo-3-azabicyclo[3.1.0]hexan-3-yl)pyridin-3-yl)ethyl)-1H-1,2,3-triazole-4-carboxamide]
20 | 1.1 | Cc1nc(C(C)n2cc(C(=O)N[C@H]3C[C@@](C)(c4cc(Cl)ccc4C#N)C3)nn2)cnc1N1C[C@H]2C[C@H]2C1=O (single isomer, unassigned) [Example 110, N-((cis)-3-(5-chloro-2-cyanophenyl)-3-methylcyclobutyl)-1-((S or R)-1-(6-methyl-5-((1R,5S)-2-oxo-3-azabicyclo[3.1.0]hexan-3-yl)pyrazin-2-yl)ethyl)-1H-1,2,3-triazole-4-carboxamide]
21 | 1.9 | Cc1ccc(C#N)c([C@H]2C[C@@H](NC(=O)c3cn(C(C)c4cnc(N5C[C@H]6C[C@H]6C5=O)cc4C)nn3)C2)n1 (single isomer, unassigned) [Example 68, N-((cis)-3-(3-cyano-6-methylpyridin-2-yl)cyclobutyl)-1-((R or S)-1-(4-methyl-6-((1R,5S)-2-oxo-3-azabicyclo[3.1.0]hexan-3-yl)pyridin-3-yl)ethyl)-1H-1,2,3-triazole-4-carboxamide]
22 | 0.8 | Cc1cc(N2C[C@H]3C[C@H]3C2=O)ncc1[C@@H](C)n1cc(C(=O)NC2CC(c3cc(Cl)ccc3C#N)C2)c([C@H](C)O)n1 (single isomer, unassigned) [Example 169]

— US12528786B2, “Plasma kallikrein inhibitors” (Merck Sharp & Dohme LLC, priority 2020, dated 2026)
